According to patent US20080153792A1, “Drug Identification and Treatment Method” (priority 2006, published 2008):

Columns and labels:
MG-63 cells = assay: reversal of glucocorticoid effects in MG-63 osteosarcoma cells; assay type: cell-based, human; settings: 0.1 μM compound
[1] = system: estrogen receptor-s or estrogen receptor-s; assay: interaction with estrogen receptors
[2] = metabolic stability in liver microsomes: mouse; settings: 10 min
Experimental: (§1) The protocol was performed as follows. […] (2) Set up samples as follows. […] (4) The internal standard/acetonitrile solution.

[3] = other protocols: degree of sulfation and glucuronidation
[4] = system: 8 week old db/db diabetic mice; assay: hyperinsulinemic-euglycemic clamp in db/db mice; assay type: in vivo, mouse
Experimental: Glucose lowering in 8 week old db/db diabetic mice. The hyperinsulinemic-euglycemic clamp protocol was conducted to measure insulin sensitivity in vivo. In this procedure, insulin was administered to raise the insulin concentration while glucose was infused to maintain euglycemia or a fixed, normal blood glucose level (about 180 mg/dL). […] The objective of this protocol was to investigate characterize the capacity of 17α-ethynylandrost-5-ene-3β,7β,17β-triol and androst-5-ene-3β,7β,16α,17β-tetrol to ameliorate systemic insulin resistance and improve whole body glucose disposal in the hyperinsulinemic-euglycemic clamp model. The degree of skeletal muscle and hepatic insulin sensitivity and tissue specific glucose uptake were also assessed. The animals were dosed daily by oral gavage for 14 days. On Day 10 of treatment catheters were implanted in the carotid artery and jugular vein. On the day of the clamp (day 14) the compound was administered at 7:30 am.
Body weight and glucose concentration were assessed on day 0, 7 and day 14 of treatment. On day 14 a euglycemic hyperinsulinemic clamp was performed. […] Plasma ^14C 2-deoxyglucose was assessed at 122, 125, 130, 135, 145 min. […]
Analysis was conducted as follows. Plasma samples were deproteinized with Ba(OH)2 (0.3 N) and ZnSO4 (0.3 N), dried and radioactivity was assessed on scintillation counter (Packard TRICARB 2900 TR, Meriden, Conn.). […] One supernatant was directly counted to determine radioactivity from both [14C] […] A second aliquot was treated with Ba(OH)2 and ZnSO4 to remove ^14C DGP and any tracer incorporated into glycogen and then counted to determine radioactivity from free [^14C]DG(2). [^14C]DGP was calculated as the difference between the two aliquots. […] Rg, an index of tissue specific glucose uptake was calculated as previously described (E. W. Kraegen et al., Am. J. Physiol., 248:E353-E362, 1985). Whole body glucose turnover was calculated as the ratio of the ^3H glucose infusion rate (dpm/kg/min) and arterial plasma glucose specific activity (dpm/mg). […]

CaCo-2 cell monolayer = assay: drug absorption with CaCo-2 cells; assay type: in vitro ADME, human
Experimental: Measurement of drug absorption with CaCo-2 cells. This protocol was used to measure the influx of compounds across a CaCo-2 cell monolayer. […] This cell line is used to study the rate at which various compounds cross the cell monolayer. […] This can provide information about a compound's potential to be orally bioavailable.
In this protocol, the cells were maintained in medium at 37° C., using 100 μL per well of warm medium in a sterile 50 ml tube. The cells were grown on sterile 24-well plates with 600 μL of differentiation medium per well. The wells contained a transwell insert to allow two compartments per well. […]
After differentiation medium reached room temperature, about 20 mL was poured into a small beaker. […] Each well was measured by the probe by inserting the probe into the well without touching the cell monolayer; press the TEST button when the probe is close to the medium surface and the reading will go from 0000 to a number when the probe touches the surface; a reading >1000Ω was acceptable. […]
20 μL of the 3α,7β,16α,17β-tetrahydroxyandrost-5-ene internal standard was added to each tube and 1500 μL of methyl-t-butyl ether was added to each tube. […] The methyl-t-butyl ether was then evaporated under nitrogen and reconstituted in 120 μL acetonitrile/water (35:65) and analyzed by LCMS.

androgen receptor = androgen receptor (Homo sapiens, UniProt P10275); assay: interaction with androgen receptor
Chain of androgen receptor (P10275 whole entry, species assumed): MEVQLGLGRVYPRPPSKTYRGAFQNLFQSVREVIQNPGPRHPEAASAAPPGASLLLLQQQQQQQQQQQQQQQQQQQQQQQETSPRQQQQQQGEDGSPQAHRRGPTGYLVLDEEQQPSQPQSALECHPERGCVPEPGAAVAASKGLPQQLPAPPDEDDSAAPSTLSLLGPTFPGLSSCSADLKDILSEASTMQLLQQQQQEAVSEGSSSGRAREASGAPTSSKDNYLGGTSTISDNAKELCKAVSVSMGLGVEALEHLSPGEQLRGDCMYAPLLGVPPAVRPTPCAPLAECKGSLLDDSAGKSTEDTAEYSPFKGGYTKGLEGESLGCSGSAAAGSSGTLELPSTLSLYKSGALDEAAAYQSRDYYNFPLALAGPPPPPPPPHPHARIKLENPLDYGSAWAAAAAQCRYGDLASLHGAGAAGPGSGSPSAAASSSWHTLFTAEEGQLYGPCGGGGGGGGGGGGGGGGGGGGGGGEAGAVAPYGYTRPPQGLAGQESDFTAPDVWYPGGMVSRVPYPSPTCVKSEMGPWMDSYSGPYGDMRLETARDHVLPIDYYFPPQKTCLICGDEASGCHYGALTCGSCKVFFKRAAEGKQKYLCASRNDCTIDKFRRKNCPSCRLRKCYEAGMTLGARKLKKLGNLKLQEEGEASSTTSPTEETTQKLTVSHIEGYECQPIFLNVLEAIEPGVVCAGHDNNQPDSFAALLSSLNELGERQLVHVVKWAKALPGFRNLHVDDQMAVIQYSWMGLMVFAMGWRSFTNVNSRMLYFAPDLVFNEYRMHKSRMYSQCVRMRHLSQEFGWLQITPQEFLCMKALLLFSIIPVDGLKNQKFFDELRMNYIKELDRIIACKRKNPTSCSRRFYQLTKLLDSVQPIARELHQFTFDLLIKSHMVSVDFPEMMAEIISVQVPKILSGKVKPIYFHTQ

[5] = metabolic stability in liver microsomes: human
Experimental: as §1

[6] = system: C57/BL6 mice, LPS-induced acute lung inflammation; assay: LPS-induced lung injury, BAL and lung MPO, Example 11; assay type: in vivo, mouse; settings: 40 mg/Kg orally; 48 h after LPS
female SJL mice, EAE = assay: experimental autoimmune encephalomyelitis (EAE), PLP-induced, Example 23; assay type: in vivo, mouse; settings: 0.1 mg q.d. po from clinical onset
11β-HSD1 mRNA = assay: liver mRNA by RT-PCR in rats fed compound in chow: 11β-HSD1; assay type: in vivo, rat; settings: 0.45% wt/wt in chow for 6 days; control 100%
From the text: (§2) Rats were fed ad libum with a standard laboratory chow that contained 0.45% wt/wt of androst-5-ene-3β,7β,17β-triol for 6 days, followed by analysis of liver tissue on day 6 for levels of phosphoenolpyruvate carboxykinase (“PEPCK”) and 11β-hydroxysteroid dehydrogenase (“11β-HSD”) in the liver. Control animals were fed normal chow and livers were examined on day 6 for PEPCK and 11β-HSD levels by measurement of messenger RNAs (mRNAs) by RT-PCR. Both control and treated animals had free access to water. […] Levels of PPARα mRNA in these animals were not affected by feeding with androst-5-ene-3β,7β,17β-triol.

PEPCK mRNA = assay: liver mRNA by RT-PCR in rats fed compound in chow: PEPCK; assay type: in vivo, rat; settings: 0.45% wt/wt in chow for 6 days; control 100%
From the text: as §2

[7] = system: thermally-injured mice (20% total body surface area); assay: bone loss in thermally-injured mice; assay type: in vivo, mouse
From the text: In bone loss conditions, 5-androstene-3β,7β,17β-triol affected the principal bone structures, i.e., cortical and trabecular layers and the growth plate. […] We observed partial protection against loss of bone mineral content as measured by dual X-ray absorptiometry.

PPARα mRNA = assay: liver mRNA by RT-PCR in rats fed compound in chow: PPARα; assay type: in vivo, rat; settings: 0.45% wt/wt in chow for 6 days; control 100%
From the text: as §2

[8] = system: rats hemorrhaged to mean arterial pressure of about 35-40 mmHg; assay: reduced blood pressure hemorrhagic trauma protocol; assay type: in vivo, rat; settings: one s.c. injection 40 mg/kg; n=7; untreated group 75%
Experimental: A reduced blood pressure hemorrhagic trauma protocol was also conducted as a second model of hemorrhagic trauma. In this protocol, 15 rats were hemorrhaged described above to a mean arterial pressure of about 35-40 mmHg and resuscitated one hour from onset of the hemorrhage with crystalloid and PRBCs. Seven […] subcutaneous injection of androst-5-ene-3β,7β,17β-triol in a methyl cellulose suspension at a concentration of 40 mg/kg body weight in 100 μL/kg body weight, one hour after initiation of hemorrhage, but before fluid resuscitation. Eight animals received subcutaneous methyl cellulose control injection at 100 μL/kg body weight. Two days after induction of hemorrhage, mortality in the untreated group (n=8) was 75%.

[9] = system: gerbils, cerebral ischemic stroke; assay: acute cerebral ischemic stroke by bilateral carotid occlusion; assay type: in vivo, gerbil; settings: stroke treated
From the text: Treatment of neuron loss associated with trauma and osteoporosis or bone loss conditions. Immune competence is a complex function that can be acutely impaired following trauma-induced elevations in endogenous glucocorticoid (GC) levels. The compound 5-androstene-3β,7β,17β-triol administered parenterally was used to preserve these immune function by exerting a trophic or anabolic activity. […] Thus, the measured food-searching latency period in each group was 6.9±0.9 seconds (sec) for sham, 46.9±13.6 sec for stroke alone and 14.8±4.8 sec for stroke treated with 5-androstene-3β,7β,17β-triol. Concomitantly, the stroke-induced loss in CA1 hippocampal neuron count was markedly abrogated by 5-androstene-3β,7β,17β-triol (sham=362,247±6,839; stroke=152,354±11,575; and stroke+5-androstene-3β,7β,17β-triol=207,854±47,334).

[10] = system: rats, trauma and hemorrhage; assay: rat model of hemorrhagic trauma, 40% loss of total blood volume; assay type: in vivo; settings: one s.c. injection 40 mg/kg one hour after initiation of hemorrhage; n=12
Experimental: The effect of treatment in a rat model of hemorrhagic trauma was examined. Twenty-four rats were subjected to 40% loss of total blood volume, consisting of catheterization and laparotomy (soft tissue injury) to mimic trauma and hemorrhage. One hour after onset of hemorrhage, the animals were resuscitated with crystalloid fluid and packed red blood cells (PRBCs). […] Twelve animals received subcutaneous methyl cellulose control injection at 100 μL/kg body weight.

[11] = system: male Wistar rats, DNBS colitis; assay: DNBS induced distal colitis; assay type: in vivo, rat; settings: s.c. once a day for 6 days, 0.2 or 2.0 mg/animal/day; 25-30% decrease considered significant
Experimental: Treatment of gastrointestinal inflammation. The capacity of formula 1 compounds to limit or inhibit inflammation or symptoms of inflammation was shown using an animal model for inflammatory bowel disease. Groups of 3 male Wistar rats (180±20 grams) fasted for 24 hours before 2,4-dinitrobenzene sulfonic acid (DNBS) or saline challenge were used. Distal colitis was induced by intra-colonic instillation of 0.5 mL of an ethanolic solution of DNBS (30 mg in 0.5 mL of a 30% ethanol in saline solution) after which 2 mL of air was injected through the cannula to ensure that the solution remained in the colon. The volume used was 0.1 mL per injection of 2 and 20 mg/mL of compound such as androst-5-ene-3β,7β,17β-triol in a liquid formulation, which was administered by subcutaneous injection once a day for 6 days (0.2 mg/animal/day or 2.0 mg/animal/day). The formulation contained 100 mg/mL of compound in a non-aqueous suspension, e.g., 2% benzyl alcohol w/v, 0.1% Brij 96 w/v and equal volumes of PEG 300 and propylene glycol. Concentrations of 2 mg/mL and 20 mg/mL were obtained by diluting the […] with vehicle that lacked compound.
The first dose was given 30 minutes after DNBS challenge. […] The presence of diarrhea was recorded daily by examining the anal area. […] Before removal of the colon, signs of adhesion between the colon and other organs are recorded. […]

Structure (SMILES): C[C@]12CC[C@H]3[C@@H]([C@@H](O)C=C4C[C@@H](O)CC[C@@]43C)[C@@H]1C[C@@H](O)[C@@H]2O [androst-5-ene-3β,7β,16α,17β-tetrol]
- osteoprotegerin levels in the presence of 30 nM dexamethasone (MG-63 cells): normal osteoprotegerin levels
- interaction with estrogen receptor-s or estrogen receptor-s [1]: do not interact
- parent remaining mouse microsomes [2]: 100% (10 min)
- degree of sulfation and degree of glucuronidation compared to diols [3]: low
- augmenting muscle glucose uptake in the gastrocnemius muscle ([4]; ^14C-2-deoxyglucose, p<0.05): more effective
- glucose infusion rate compared to the vehicle control ([4]; oral gavage 14 days, insulin 10 mU/kg/min): increased the glucose infusion rate
- permeability in the CaCo-2 cell line (CaCo-2 cell monolayer): not highly permeable
- interaction with androgen receptor (androgen receptor): do not interact
- parent remaining human microsomes ([5]; 10 min): 100% (10 min)
- level of IL-6 in BAL compared to vehicle treated animals [6]: reduced levels
- level of MPO compared to vehicle treated animals [6]: reduced levels
- level of TNFα in BAL compared to vehicle treated animals [6]: reduced levels
- course of EAE compared to vehicle-treated mice (female SJL mice, EAE): significantly improved course of EAE

Structure (SMILES): C[C@]12CC[C@H]3[C@@H]([C@@H](O)C=C4C[C@@H](O)CC[C@@]43C)[C@@H]1CC[C@@H]2O [androst-5-ene-3β,7β,17β-triol]
- 11β-HSD1 mRNA (11β-HSD1 mRNA): 45%
- PEPCK mRNA (PEPCK mRNA): 30%
- femur ash weight versus vehicle-treated burned mice [7]: significantly (p<0.01) greater
- loss of cortical (femur) and trabecular/cancellous (tibia) bone mass and suppression of chondrocyte proliferation in growth plate [7]: significantly (p<0.01) prevented
- PPARα mRNA (PPARα mRNA): 105%
- mortality rate two days after induction of hemorrhage [8]: 43%
- parent remaining mouse microsomes [2]: 89% (10 min)
- food-searching latency period ([9]; sham 6.9±0.9, stroke alone 46.9±13.6): 14.8 ± 4.8 s
- CA1 hippocampal neuron count ([9]; sham 362,247±6,839, stroke 152,354±11,575): 207,854±47,334
- parent remaining human microsomes ([5]; 90 min): 86% (90 min)
- survival rate three days after induction of hemorrhage [10]: 100%
- decrease in net colon-to-body weight ratio [11]: 15-20%
